Results published in paper PMC6933938, “Comparative physiological, metabolomic, and transcriptomic analyses reveal developmental stage-dependent effects of cluster bagging on phenolic metabolism in Cabernet Sauvignon grape berries” (BMC Plant Biology, 2019).

Molecular target: T1, VviFLS4 (Vitis vinifera, UniProt Q2PHJ7)
T1 construct: gene FLS4; pET-48b(+), printed as C-terminal 6xHis tag fusion; E. coli BL21(DE3), Ni2+ column; tag removal not mentioned
T1 sequence (Q2PHJ7 1-335): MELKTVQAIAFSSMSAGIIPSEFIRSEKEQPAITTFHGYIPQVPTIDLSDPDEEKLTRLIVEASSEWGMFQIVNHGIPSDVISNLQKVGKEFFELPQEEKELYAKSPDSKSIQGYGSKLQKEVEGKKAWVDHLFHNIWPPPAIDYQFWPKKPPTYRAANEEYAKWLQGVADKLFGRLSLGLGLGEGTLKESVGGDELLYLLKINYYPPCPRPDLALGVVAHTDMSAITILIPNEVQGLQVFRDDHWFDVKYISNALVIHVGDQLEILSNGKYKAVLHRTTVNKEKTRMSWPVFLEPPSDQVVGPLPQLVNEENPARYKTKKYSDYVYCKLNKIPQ
Test: HPLC-MS product analysis
Format: biochemical
Settings: converted to kaempferol; 0.5 uM substrate, 10 mM alpha-ketoglutaric acid, 0.25 mM FeSO4, 10 mM ascorbic acid, 100 mM NaH2PO4 pH 6.0, 25 C, 1 h

O=C1c2c(O)cc(O)cc2O[C@H](c2ccc(O)cc2)[C@H]1O [dihydrokaempferol]
HPLC-MS product analysis: DHK into kaempferol, and dihydroquercetin (DHQ) into quercetin, respectively
